Common to all, as to assay: Bliss excess, mean over the matrix (fraction); higher = more synergy
Experiment [1] relates to AMO-1 (Plasma Cell Myeloma). The procedure, abridged: (§1)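 Cell lines in DMEM/F12 or RPMI with 10% FBS were plated in 1536-well plates, held 24 hours at 37°C, 5% CO2, then given two-drug dose matrices for 72 hours (DMSO typically 0.2%). Viability was read by CellTiter-Glo 2.0 luminescence and scaled as inhibition from 0 (vehicle wells) to 1 (blank wells). Combination Emax is the second-highest inhibition in the matrix; Bliss excess is observed combination effect minus expected EA + EB − EA·EB, EA and EB being single-agent effects.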

The subject of experiment [2] is BT-549 (Breast Carcinoma). In short, it runs like this:
as §1

For experiment [3], the system named is C-4-I (Cervical Carcinoma). The procedure, abridged:
as §1

The test system of a further experiment is D-263MG (Glioblastoma). The procedure, abridged: as §1
Experiment [4] deals with EFM-19 (Breast Carcinoma). The procedure, abridged: as §1
For experiment [5], the system named is HSC-4 (Oral Cavity Carcinoma). The procedure, abridged: as §1
The test system of experiment [6] is Hs-766T (Pancreatic Carcinoma). In short, it runs like this: as §1
Experiment [7] has as its system KARPAS-299 (T-Cell Non-Hodgkin's Lymphoma). The procedure, abridged: as §1
Experiment [8] has as its system KYSE-450 (Esophageal Squamous Cell Carcinoma). In short, it runs like this:
as §1

Experiment [9] deals with LU-65 (Non-Small Cell Lung Carcinoma). The procedure, abridged:
as §1

Experiment [10] concerns MLMA (Other Blood Carcinomas). The procedure, abridged: as §1
Experiment [11] relates to NCI-H1915 (Non-Small Cell Lung Carcinoma). The procedure, abridged:
as §1

Experiment [12] concerns NCI-H727 (Other Solid Carcinomas). In short, it runs like this:
as §1

Experiment [13] concerns OE19 (Esophageal Adenocarcinoma). In short, it runs like this: as §1
For experiment [14], the system named is OSC-20 (Oral Cavity Carcinoma). In short, it runs like this:
as §1

In experiment [15] the test system is OVCAR-4 (Ovarian Carcinoma). In short, it runs like this: as §1
Experiment [16] concerns SCC-15 (Oral Cavity Carcinoma). The procedure, abridged:
as §1

Experiment [17] has as its system SW13 (Other Solid Carcinomas). The procedure, abridged: as §1
The next experiment relates to TGW (Neuroblastoma). In short, it runs like this: as §1
The subject of the next experiment is UACC-62 (Melanoma). The procedure, abridged:
as §1

Consider `CN(C)CCCOc1ccc(-c2ccc3ncc4c(c3c2)n(C2CCOCC2)c(=O)n4C)cn1` [AZD0156] + C=CCn1c(=O)c2cnc(Nc3ccc(N4CCN(C)CC4)cc3)nc2n1-c1cccc(C(C)(C)O)n1 [AZD1775] (first compound max 1 µM, partner max 1 µM), for which the Bliss excess in experiment [1] was 0.011; in experiment [2], -0.0986; in experiment [3], -0.0175; with D-263MG (Glioblastoma), -0.039; in [4], -0.0295; in experiment [5] it was -0.0418. For the same molecule, the Bliss excess in experiment [6] is -0.0232; in experiment [7], 0.0063; in [8], -0.0487; in experiment [9], -0.0032; in experiment [10], -0.0081; in [11] it was -0.0572. Besides, the Bliss excess in experiment [12] is -0.095; in experiment [13], 0.0012; in [14], -0.0443; in experiment [15], -0.0368; in experiment [16] it was -0.0799; in experiment [17], -0.0449. Also, the Bliss excess in the experiment on TGW (Neuroblastoma) is -0.0051; in the experiment on UACC-62 (Melanoma) it was 0.0087.

`CN(C)CCCOc1ccc(-c2ccc3ncc4c(c3c2)n(C2CCOCC2)c(=O)n4C)cn1` [AZD0156] + CCN(CCO)CCCOc1ccc2c(Nc3cc(CC(=O)Nc4cccc(F)c4)[nH]n3)ncnc2c1 [AZD2811] (first compound max 1 µM, 7x7, partner max 1 µM): the Bliss excess in experiment [1] is 0.0053; in experiment [2] it was -0.0028; in [3], -0.0074; with D-263MG (Glioblastoma) it was -0.0339; in [4], -0.0331; in [5], -0.0348. In addition, the Bliss excess is -0.0411 in [6]; 0.0031 in experiment [7]; -0.0353 in [8]; 0.0441 in [9]; -0.0431 in [10]; 0.0174 in [11]. For the same molecule, the Bliss excess in [12] was -0.0825; in experiment [13] it was 0.0224; in experiment [14], 0.0224; in experiment [15] it was -0.0148; in experiment [16] it was -0.0458; in [17] it was 0.0259. The Bliss excess is -0.0141 in the experiment on TGW (Neuroblastoma) and -0.0467 in the experiment on UACC-62 (Melanoma).

As for `CN(C)CCCOc1ccc(-c2ccc3ncc4c(c3c2)n(C2CCOCC2)c(=O)n4C)cn1` [AZD0156] + C[C@@H]1COCCN1C2=NC(=NC(=C2)C3(CC3)[S@](=N)(=O)C)C4=C5C=CNC5=NC=C4 [AZD6738] (first compound max 1 µM, 7x7, partner max 10 µM), the Bliss excess in experiment [1] was 0.0146; in [2], -0.0042; in [3], 0.0071; in the experiment on D-263MG (Glioblastoma), 0.0366; in experiment [4] it was -0.0264; in [5], -0.0461. For the same molecule, the Bliss excess in experiment [6] was 0.0079; in [7], -0.0283; in experiment [8] it was -0.0099; in experiment [9] it was 0.021; in experiment [10] it was -0.0132; in [11] it was 0.0366. In addition, the Bliss excess is 0.0226 in experiment [12]; 0.0277 in experiment [13]; -0.0085 in [14]; 0.0213 in [15]; -0.0209 in experiment [16]; 0.0112 in experiment [17]. Moreover, the Bliss excess with TGW (Neuroblastoma) is 0.0307; in the experiment on UACC-62 (Melanoma), -0.0035.

As for `CN(C)CCCOc1ccc(-c2ccc3ncc4c(c3c2)n(C2CCOCC2)c(=O)n4C)cn1` [AZD0156] + O=C(c1cc(Cc2n[nH]c(=O)c3ccccc23)ccc1F)N1CCN(C(=O)C2CC2)CC1 [Olaparib] (first compound max 3 µM, partner max 3 µM), the Bliss excess is 0.0066 in experiment [1]; -0.0436 in experiment [2]; 0.0867 in experiment [3]; 0.0132 in the experiment with D-263MG (Glioblastoma); 0.0014 in experiment [4]; 0.0226 in [5]. Besides, the Bliss excess is -0.0741 in experiment [6]; 0 in experiment [7]; -0.0054 in [8]; 0.0033 in [9]; 0.0255 in [10]; 0.0032 in experiment [11]. Further, the Bliss excess in experiment [12] was -0.0333; in experiment [13] it was 0.13; in experiment [14], 0.0433; in [15] it was -0.0137; in experiment [16], 0.067; in experiment [17] it was 0.0694. The Bliss excess in the experiment on TGW (Neuroblastoma) is 0.106; in the experiment with UACC-62 (Melanoma), -0.028.

On to `C=CCn1c(=O)c2cnc(Nc3ccc(N4CCN(C)CC4)cc3)nc2n1-c1cccc(C(C)(C)O)n1` [AZD1775] + C1CN(CCC1(C(=O)N[C@@H](CCO)C2=CC=C(C=C2)Cl)N)C3=NC=NC4=C3C=CN4 [Capivasertib] (first compound max 3 µM, partner max 3 µM), for which the Bliss excess in experiment [1] is 0.0002; in experiment [2] it was -0.0628; in experiment [3], 0.0113; in the experiment on D-263MG (Glioblastoma), -0.0143; in [4], -0.0443; in experiment [5] it was 0.0018. For the same molecule, the Bliss excess was -0.0513 in experiment [6]; -0.0444 in [7]; -0.0843 in experiment [8]; -0.0688 in experiment [9]; -0.0415 in experiment [10]; 0.0032 in experiment [11]. Besides, the Bliss excess was -0.0584 in experiment [12]; 0.0192 in [13]; -0.0196 in [14]; -0.0627 in [15]; -0.0319 in experiment [16]; -0.016 in experiment [17]. Moreover, the Bliss excess was -0.0542 in the experiment with TGW (Neuroblastoma) and 0.0375 in the experiment on UACC-62 (Melanoma).

Take `C=CCn1c(=O)c2cnc(Nc3ccc(N4CCN(C)CC4)cc3)nc2n1-c1cccc(C(C)(C)O)n1` [AZD1775] + C[C@@H]1COCCN1C2=NC(=NC(=C2)C3(CC3)[S@](=N)(=O)C)C4=C5C=CNC5=NC=C4 [AZD6738] (first compound max 1 µM, partner max 10 µM): the Bliss excess was -0.0139 in [1]; 0.0107 in [2]; 0.0088 in experiment [3]; -0.0766 with D-263MG (Glioblastoma); -0.0503 in experiment [4]; -0.0155 in experiment [5]. Further, the Bliss excess is -0.0217 in [6]; 0.0169 in experiment [7]; 0.0809 in experiment [8]; 0.0327 in experiment [9]; -0.0079 in experiment [10]; -0.0225 in [11]. Moreover, the Bliss excess in experiment [12] is 0.0078; in experiment [13], 0.0514; in [14], 0.0026; in experiment [15], 0.0352; in experiment [16], -0.0216; in experiment [17] it was 0.0169. The values for the Bliss excess in the experiment on TGW (Neuroblastoma) and in the experiment on UACC-62 (Melanoma) were 0.0606 and 0.0163, respectively.

These data come from the supplement of paper PMC11061612.
